Data from patent publication US20240174625A1, “COMPOSITIONS AND METHODS FOR TREATING TAUOPATHIES” (The Regents of the University of California, priority 2021, published 2024).

Tests used:
HEK293T cells = assay: Cell viability assay (CellTiter Glo); type: cell-based, human; conditions: for IC50: Homo sapiens, HEK-293T, log10 transformed, IC50 = concentration that suppresses 50% cell viability, HEK293T cells; for Therapeutic index: ratio of IC50 (cell viability) over EC50 (NPEPPS activity)
Experimental: HEK293T cells (AATC) were maintained in complete media and cell viability assay was conducted in a fresh-prepared minimal medium containing essential amino acids, vitamin, AlbuMax (Invitrogen 11021-029) in 1×HBS buffer. White 384-well assay plates (Greiner EK-30080) were coated with poly-L-ornithine (0.1 mg/ml) overnight and washed once with 1×PBS. 15 μl minimal medium was then added to each well. 250 nl of compounds dissolved in OmniSolve DMSO were pinned to each well via Biomek FX^P Liquid Handling Automation from compound source plates. Cells were harvested, resuspended in minimal medium, and seeded at 16,500 cells/15 μl/well in the 384-well assay plates. 24 hrs later, 25 μl/well CellTiter Glo reagent (Promega G7572) was added into each well, and luminescence (0.5 second integration time) was acquired following manufacture's protocol. Luminescence count normalized to DMSO control is used as a readout of cell viability.
(§1) To investigate the effects of JMM compounds that enhance NPEPPS activity and assess their cellular toxicity, 139 compounds in the JMM series (i.e., JMM001-JMM139) were tested in dose responses (20-step, 2-fold dilution) using NPEPPS activity and viability assays in HEK293T cells. 76 compounds harboring different modifications produce concentration-dependent enhancement on NPEPPS activity compared to DMSO control (FIG. 4). […] A therapeutic index (TI, a ratio of IC50 over EC50) is used to evaluate the relative safety profiles of the compounds. […] 16 JMM compounds show both improved potency and reduced toxicity (EC50<10 μM and TI>10, Table 1).

NPEPPS = biological target: T1, NPEPPS (Homo sapiens, UniProt P55786); assay: Cell-based NPEPPS activity assay (Q-AMC fluorescence); conditions: log10 transformed; EC50 = concentration that elevates 50% NPEPPS activity (150% of DMSO baseline); HEK293T cells
T1 construct: endogenous in cells; host or cells: HEK293T
Experimental: HEK293T cells (AATC) were maintained in a complete media containing DMEM (Gibco 11995-065) in the presence of 10% fetal bovine serum (FBS, Gibco 10082147), […] penicillin and 50 μg/ml streptomycin (Gibco 15140163) at 37° C. with 5% CO2. NPEPPS activity assay was conducted in a fresh-prepared minimal medium containing essential amino acids, vitamin, AlbuMax (Invitrogen 11021-029) in 1×HBS buffer. Black wall, clear bottom 384-well assay plates (Greiner EK-30092) were coated with poly-L-ornithine (0.1 mg/ml, Sigma P3655) overnight and washed once with 1×PBS. 15 μl minimal medium was then added to each well. 250 nL of compounds dissolved in OmniSolve methylsulfoxide (dimethyl sulfoxide, DMSO, Sigma MX1456P) were pinned to each well via Biomek FX^P Liquid Handling Automation (Beckman Coulter) from compound source plates, i.e., either pre-made compound libraries or JMM compounds (20-step, 2-fold dilution) dissolved in OmniSolve DMSO prepared via Biomek automation in 384-well clear V-bottom polypropylene microplates (ThermoScientific 50-823-639). Cells were harvested, resuspended in minimal medium, and seeded at 16,500 cells/15 μl/well in the 384-well assay plates. 24 hrs later, 30 μl 200 μM H-Gln-AMC hydrobromide salt (Q-AMC, Bachem #I-1175) in 1×HBS containing 0.1% DMSO was added into each well. The fluorescent signal at excitation/emission wavelengths of 360/460 nm was measured immediately upon Q-AMC addition and 3 hrs post-Q-AMC. The change in fluorescence is measured as a readout of NPEPPS activity.
To identify small molecules that either increase NPEPPS levels or NPEPPS activity, a cell-based NPEPPS activity assay amenable to high-throughput screening (HTS) by adapting a fluorescent peptidase activity assay^2 was developed. Since NPEPPS is one of the only aminopeptidases capable of cleaving glutamine-peptide bonds^3 and the major aminopeptidase responsible for degradation of poly-glutamine sequences in the brain^4, a fluorogenic compound, glutamine-7-amino-4-methylcoumarin (Q-AMC), was selected as a substrate to measure NPEPPS activity. The peptide bond of Q-AMC is hydrolyzed by NPEPPS to release glutamine and a fluorescent product, 7-amino-4-methylcoumarin (AMC), when Q-AMC is added directly to the cell culture media. This change in fluorescence is measured as a readout of aminopeptidase activity (FIG. 2A). Overexpression of NPEPPS in HEK293T cells results in a significant increase in fluorescence, whereas knock-down or chemical inhibition of NPEPPS decrease fluorescence change (FIG. 2B-D), validating that the changes in fluorescence observed in the Q-AMC-based assay directly correlate with changes in NPEPPS activity. A high-throughput (HTS) screen (201,845 compounds) was conducted at the UCLA MSSR core (FIG. 2E). Follow-up assays and chemical clustering identified three series of compounds with distinct chemical clusters (FIG. 2F).
as §1

T1 sequence (P55786 whole entry): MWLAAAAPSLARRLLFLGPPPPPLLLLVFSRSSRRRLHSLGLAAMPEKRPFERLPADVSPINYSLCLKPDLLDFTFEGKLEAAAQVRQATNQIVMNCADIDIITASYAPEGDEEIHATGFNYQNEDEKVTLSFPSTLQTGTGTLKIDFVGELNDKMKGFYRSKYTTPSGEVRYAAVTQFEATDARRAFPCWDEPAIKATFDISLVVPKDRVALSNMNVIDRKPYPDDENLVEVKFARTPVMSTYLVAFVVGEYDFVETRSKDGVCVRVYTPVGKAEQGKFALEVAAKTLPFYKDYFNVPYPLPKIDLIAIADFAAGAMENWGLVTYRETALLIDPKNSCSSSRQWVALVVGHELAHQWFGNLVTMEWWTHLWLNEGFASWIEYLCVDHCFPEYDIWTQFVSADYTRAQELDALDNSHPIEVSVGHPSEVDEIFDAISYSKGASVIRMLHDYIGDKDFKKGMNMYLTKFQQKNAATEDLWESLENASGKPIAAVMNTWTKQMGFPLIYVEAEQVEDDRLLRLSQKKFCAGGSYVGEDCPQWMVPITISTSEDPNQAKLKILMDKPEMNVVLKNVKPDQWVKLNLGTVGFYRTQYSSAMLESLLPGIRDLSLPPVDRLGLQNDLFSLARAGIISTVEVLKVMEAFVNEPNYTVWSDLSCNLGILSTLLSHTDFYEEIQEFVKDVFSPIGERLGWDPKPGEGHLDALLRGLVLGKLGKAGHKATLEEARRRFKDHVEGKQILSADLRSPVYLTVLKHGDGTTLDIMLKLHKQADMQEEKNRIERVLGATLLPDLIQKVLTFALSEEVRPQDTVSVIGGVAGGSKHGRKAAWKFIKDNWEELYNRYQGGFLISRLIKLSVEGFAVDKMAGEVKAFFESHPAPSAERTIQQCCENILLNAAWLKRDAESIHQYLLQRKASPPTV

EC50 (NPEPPS)	SMILES	IC50 (HEK293T cells)	Therapeutic index (HEK293T cells)
4.07 µM	CN(Cc1ccc(OCc2ccc(Cl)c(Cl)c2)cc1)c1nsc2ccc(OCc3ccccc3)cc12 [JMM109, 5-(Benzyloxy)-N-(4-((3,4-dichlorobenzyl)oxy)benzyl)-N-methylbenzo[d]isothiazol-3-amine]	60.3 µM	14.99
26.9 µM	Fc1ccc2snc(NCc3ccc(C(F)(F)F)cc3)c2c1 [JMM139, 5-Fluoro-N-(4-(trifluoromethyl)benzyl)benzo[d]isothiazol-3-amine]	36.3 µM	1.36
81.3 µM	O=[N+]([O-])c1ccc(CNc2nsc3ccccc23)cc1 [JMM043]	309 µM	3.79
30.2 µM	C#Cc1cccc2c(NCc3ccc(C(F)(F)F)cc3)nsc12 [JMM064]	69.2 µM	2.30
145 µM	CN(Cc1ccc(OCc2ccccc2)cc1)c1nsc2ccccc12 [JMM091]	174 µM	1.19
40.7 µM	CN(Cc1ccccc1)c1ccc(CNc2nsc3ccc(OCc4ccccc4)cc23)cc1 [JMM125, N-(4-(Benzyl(methyl)amino)benzyl)-5-(benzyloxy)benzo[d]isothiazol-3-amine]	603 µM	14.75
6.46 µM	c1ccc(COc2ccc(CNc3nsc4cnccc34)cc2)cc1 [JMM077]	61.7 µM	9.60
20.4 µM	FC(F)(F)c1ccc(CNc2noc3ccccc23)cc1 [JMM039]	61.7 µM	3.03
288 µM	c1ccc2c(NCc3ccc4c(c3)OCCO4)nsc2c1 [JMM017]	204 µM	0.71
13.5 µM	FC(F)(F)c1ccc(CN(Cc2ccccc2)c2nsc3ccccc23)cc1 [JMM072]	155 µM	11.52
4.57 µM	CN(Cc1ccc(C(F)(F)F)cc1)c1nsc2cnccc12 [JMM084]	23.4 µM	5.13
53.7 µM	Fc1ccc(NCc2ccc(C(F)(F)F)cc2)nc1 [JMM045]	186 µM	3.49
200 µM	N#Cc1cccc2c(NCc3ccc(C(F)(F)F)cc3)nsc12 [JMM070]	2630 µM	13.25
105 µM	c1ccc(CNc2nsc3ccccc23)nc1 [JMM058]	741 µM	7.17
34.7 µM	FC(F)(F)c1ccc(CNc2nsc3ccccc23)cc1 [JMM005]	117 µM	3.42
10.2 µM	FC(F)(F)Sc1ccc(CNc2nsc3ccc(OCc4ccccc4)cc23)cc1 [JMM096]	63.1 µM	6.09
60.3 µM	COc1ccc(CNc2n[nH]c3ccccc23)cc1OC [JMM047]	170 µM	2.85
10.5 µM	FC(F)(F)c1ccc(CNc2nsc3ccccc23)c(C(F)(F)F)c1 [JMM061]	72.4 µM	6.85

EC50 (NPEPPS)	SMILES	IC50 (HEK293T cells)	Therapeutic index (HEK293T cells)
50.1 µM	FC(F)(F)c1cccc(CNc2nsc3ccccc23)c1 [JMM032]	3090 µM	62.09
42.7 µM	CN(Cc1cccc2ccccc12)c1nsc2ccccc12 [JMM110, N-Methyl-N-(naphthalen-1-ylmethyl)benzo[d]isothiazol-3-amine]	229 µM	5.40
31.6 µM	Fc1cccc2c(NC(c3ccccc3)c3ccccc3)nsc12 [JMM057]	151 µM	4.85
5.13 µM	c1ccc(COc2ccc3snc(NCc4ccc(OCc5cccs5)cc4)c3c2)cc1 [JMM132, 5-(Benzyloxy)-N-(4-(thiophen-2-ylmethoxy)benzyl)benzo[d]isothiazol-3-amine]	12 µM	2.36
1020 µM	COc1ccc(C(=O)Nc2nsc3ccccc23)cc1OC [JMM002]	1410 µM	1.36
5.62 µM	CN(Cc1ccc(OCc2ccc(Cl)cc2)cc1)c1nsc2ccc(OCc3ccccc3)cc12 [JMM108, 5-(Benzyloxy)-N-(4-((4-chlorobenzyl)oxy)benzyl)-N-methylbenzo[d]isothiazol-3-amine]	40.7 µM	7.13
22.9 µM	FC(F)(F)c1ccc(CNc2nsc3ccc(Cl)cc23)cc1 [JMM138, 5-Chloro-N-(4-(trifluoromethyl)benzyl)benzo[d]isothiazol-3-amine]	25.1 µM	1.10
100 µM	FC(F)(F)c1ccc(CNc2n[nH]c3ccccc23)cc1 [JMM038]	105 µM	1.06
27.5 µM	Clc1ccc2snc(NCc3ccc(OCc4ccccc4)cc3)c2c1 [JMM129, N-(4-(Benzyloxy)benzyl)-5-chlorobenzo[d]isothiazol-3-amine]	661 µM	24.01
120 µM	c1ccc(COc2ccc3snc(NCc4cccs4)c3c2)cc1 [JMM119, 5-(Benzyloxy)-N-(thiophen-2-ylmethyl)benzo[d]isothiazol-3-amine]	501 µM	4.20
56.2 µM	FC(F)(F)c1ccc(CNc2ncccn2)cc1 [JMM049]	162 µM	2.93
5.5 µM	Clc1ccc(COc2ccc(CNc3nsc4ccc(OCc5ccccc5)cc34)cc2)cc1 [JMM112, 5-(Benzyloxy)-N-(4-((4-chlorobenzyl)oxy)benzyl)benzo[d]isothiazol-3-amine]	23.4 µM	4.29
4.47 µM	Brc1ccc(COc2ccc(CNc3nsc4ccc(OCc5ccccc5)cc34)cc2)cc1 [JMM113, 5-(Benzyloxy)-N-(4-((4-bromobenzyl)oxy)benzyl)benzo[d]isothiazol-3-amine]	18.6 µM	4.18
46.8 µM	COc1ccc(CNc2nsc3ccc(OCc4ccccc4)cc23)cc1 [JMM099]	34.7 µM	0.74
257 µM	COc1ccc(CNc2nsc3ccccc23)cc1 [JMM003]	263 µM	1.03
25.7 µM	Fc1ccccc1COc1ccc(CNc2nsc3ccc(OCc4ccccc4)cc23)cc1 [JMM118, 5-(Benzyloxy)-N-(4-((2-fluorobenzyl)oxy)benzyl)benzo[d]isothiazol-3-amine]	15.5 µM	0.60
251 µM	COc1ccc(CNc2noc3ccccc23)cc1OC [JMM040]	251 µM	1.00
2.63 µM	CN(Cc1ccc(SC(F)(F)F)cc1)c1nsc2ccccc12 [JMM082]	75.9 µM	29.32
